US9180114B2, “Neurodegenerative diseases and methods of modeling” (PRESIDENT AND FELLOWS OF HARVARD COLLEGE, priority 2008, dated 2015)

Key:
[1] = tested on: Hb9::GFP human ES cell-derived motor neurons on SOD1G93A glia; test: Survival of human ES cell-derived motor neurons co-cultured with SOD1G93A glia treated with prostaglandin D2 receptor antagonists; type: cell-based; details: for Hb9::GFP cells remaining (cell death / survival of motor neurons) on SOD1G93A glia: 10 days of treatment
[2] = tested on: mice; details: cited from earlier work; for induction of (cutaneous) vasodilation: agonist alone
[3] = tested on: Hb9::GFP human ES cell-derived motor neurons; test: Survival of Hb9::GFP human ES cell-derived motor neurons co-cultured with non-transgenic (WT) glia treated with candidate factors; type: cell-based; details: 20 days of treatment
Description: After 24 hours, the cells had aggregated to form embryoid bodies (EBs), and the media was changed to remove debris by centrifuging the EBs and resuspending in fresh in human ES cell media without bFGF2 or plasmanate in low attachment 6-well plates. EBs were cultured as such for 13 more days, with half of the media changed every two days, and a complete media change every week. After 14 days, the EBs were induced toward a caudal and ventral identity using retinoic acid (1 μM, Sigma) and an agonist of the Shh signaling pathway (1 μM) in N2 media: 1:1 DMEM:F-12+Glutamate (Gibco), 10,000 units Penicillin and 1 mg/mL Streptomicin (Gibco), 1% N2 Supplement (Gibco), 0.2 mM ascorbic acid (Sigma-Aldrich), 0.16% D-(+)-Glucose (Sigma-Aldrich), BDNF (10 ng/ml, R&D Systems), for another 14 days. The EBs were then matured for a final 14 days in N2 media with GNDF (10 ng/mL, R&D Systems). After 42 days of differentiation, the EBs were dissociated. To dissociate the EBs, they were centrifuged at 1000 rpm for 5 min in a 15 ml falcon tube, and then washed once with PBS to eliminate residual media. The EBs were then incubated for 60 minutes at 37° C. in Earle's Balanced Salt Solution with 20 units of papain and 1000 units of Deoxyribonuclease I (Worthington Biochemical Corporation). EBs were triturated using a 2 mL serological pipette every 15-20 minutes during this incubation. When an almost single cell suspension was achieved, the cells were centrifuged for 5 minutes at 1000 RPM. […] These cells were then counted and plated on Poly-D-Lysine/Laminin CultureSlides (BD biosciences) or on a layer of primary glial cells. Depending on the experiment, motor neurons or interneurons were counted 10 or 20 days after plating.
Non-transgenic glia were individually pretreated for 1 day with either one of the three cytokines MCP2, Cxcl7, or Rantes; with GMFb; an agonist of SHH pathway; or with PGD2. […] Replicate cultures were individually maintained for 20 days in the presence of each of the 6 factors, fixed, and the numbers of GFP positive motor neurons quantified. […]

## O=C(O)CCCCCCC1C(=O)N(Cc2ccccc2)C(=O)N1NCC(O)C1CCCCC1 (stereo not shown) [BWA868C]
[1]
  Hb9::GFP cells remaining (cell death / survival of motor neurons) on SOD1G93A glia: significantly reduced cell death
[1]; listed as BW868C
  Hb9::GFP cells remaining (cell death / survival of motor neurons) on SOD1G93A glia: significantly reduced neuronal cell death

## O=C(O)CCCCCCC1C(=O)NC(=O)N1CCC(O)C1CCCCC1 (stereo not shown) [BW245C]
[2]
  induction of (cutaneous) vasodilation: induced vasodilation

## CCCCCC(=O)CCC1C(=O)CC(O)C1C/C=C\CCCC(=O)O (stereo not shown) [DK-PGD2, 13,14-dihydro-15-keto-PGD2]
[2]
  induction of (cutaneous) vasodilation: did not induce cutaneous vasodilation

## CS(=O)(=O)c1cc(F)cc2c3c(n(Cc4ccc(Cl)cc4)c12)[C@@H](CC(=O)O)CC3 [MK 0524]
[1]
  increase in the number of GFP positive neurons relative to untreated neurons plated on the same glia: 32%
  neuronal cell death for motor neurons cultured on SOD1G93A glia: significantly reduced neuronal cell death
[2]; PGD2 or nicotinic acid (NA) challenge
  blockade of PGD2- and NA-induced vasodilation: blocked both PGD2- and NA-induced vasodilation

## CCCCC[C@H](O)/C=C/[C@H]1C(=O)C[C@H](O)[C@@H]1C/C=C\CCCC(=O)O [PGD2, prostaglandin D2]
[3]; WT glia pretreated 1 day, 10 μM
  number of motor neurons compared to the control condition: 19%+/−2%

B1: Mcp2: cytokine over expressed in mutant glia (protein, UniProt Q9Z121 24-97, looked up)
C-C motif chemokine 8: GPDKAPVTCCFHVLKLKIPLRVLKSYERINNIQCPMEAVVFQTKQGMSLCVDPTQKWVSEYMEILDQKSQILQP
[3]; non-transgenic (WT) glia pretreated 1 day, 100 ng/ml
  number of GFP positive motor neurons compared to the control condition: 103%+/−8%

B2: GMFb: glial maturation factor beta, induces a pro-inflammatory state in astrocytes (protein, UniProt Q9CQI3 2-142, looked up)
Glia maturation factor beta: SESLVVCDVAEDLVEKLRKFRFRKETHNAAIIMKIDKDERLVVLDEELEGVSPDELKDELPERQPRFIVYSYKYQHDDGRVSYPLCFIFSSPVGCKPEQQMMYAGSKNKLVQTAELTKVFEIRNTEDLTEEWLREKLGFFH
[3]; non-transgenic (WT) glia pretreated 1 day, 250 ng/ml
  number of human ES cell derived motor neurons compared to the control condition: 95%+/−9%
